Test results: patent US20100093811A1 (priority 2007, published 2010)
Like-named read-outs stand apart in the source and are kept apart here.

How the values were obtained:
[1] = target: wild-type HIV-1 protease (Human immunodeficiency virus type 1 group M subtype B, UniProt P04585); assay: Assay for inhibition of microbial expressed HIV protease; type: biochemical
Description: Assay for Inhibition of Microbial Expressed HIV Protease
Inhibition studies of the reaction of the protease (which was expressed in Eschericia coli) with a peptide substrate [Val-Ser-Gln-Asn-(betanapthyl)Ala-Pro-Ile-Val]. The inhibitor is first preincubated with the enzyme in assay buffer (50 mM sodium acetate, pH 5.5, 100 mM NaCl, and 0.1% BSA) for 30 minutes at room temperature. Substrate is added to 440 micromolar in a total volume of 80 microliters containing 5 picomolar HIV-1 protease, and the reaction is incubated for 1 hour at 30° C. The reaction is quenched by addition of 120 microliters of 10% phosphoric acid, and product formation is determined after separation of product and substrate on a Vydac C18 column connected to an Alliance high performance liquid chromatography system (Waters Corporation). The extent of inhibition of the reaction is determined from the peak area of the products.

[2] = tested on: acute HIV infection of T-lymphoid cells; assay: Assay for inhibition of HIV replication (spread assay); type: cell-based, HIV-1; details: Human immunodeficiency virus 1, T-lymphoid; read-out: Spread - IC95
Description: • Assay for Inhibition of HIV Replication
Assays for the inhibition of acute HIV infection of T-lymphoid cells were conducted in accordance with Vacca, J. P. et al., Proc. Natl. Acad. Sci. USA 1994, 91: 4096.

[3] = wild-type HIV-1 protease expressed in E. coli, peptide substrate, pH 5.5, read-out: Enzyme Inhibition - IC50

SMILES	IC50 [1, 3] [nM]	IC95 [2] [µM]	IC50 [1] [nM]
CC[C@@H](CCC[C@@H](CO)N(CCC(C)C)S(=O)(=O)c1ccc(N)cc1)NC(=O)[C@@H](N)C(c1ccccc1)c1ccccc1 [Example F13, N-{(1S,5S)-5-[[(4-aminophenyl)sulfonyl](3-methylbutyl)amino]-1-ethyl-6-hydroxyhexyl}-β-phenyl-L-phenylalaninamide]	0.01	0.015	
COC(=O)N[C@H](C(=O)N[C@H](CCC[C@@H](CO)N(C(C)C)S(=O)(=O)c1ccc(N)cc1)C(C)C)C(c1ccccc1)c1ccccc1 [Example F14, N-{(1R,5S)-5-[[(4-aminophenyl)sulfonyl](isopropyl)amino]-6-hydroxy-1-isopropylhexyl}-Nα-(methoxycarbonyl)-β-phenyl-L-phenylalaninamide]	1.76	0.148	
COC(=O)N[C@H](C(=O)N[C@@H](C)CCC[C@@H](CO)N(C(C)C)S(=O)(=O)c1ccc(N)cc1)C(c1cccc(F)c1)c1cccc(F)c1 [Example F15, N-{(1S,5S)-5-[[(4-aminophenyl)sulfonyl](isopropyl)amino]-6-hydroxy-1-methylhexyl}-3-fluoro-β-(3-fluorophenyl)-Nα-(methoxycarbonyl)-L-phenylalaninamide]	0.01	0.016	
COC(=O)N[C@@H](Cc1cccc(Cl)c1Cl)C(=O)N[C@@H](C)CCC[C@@H](CO)N(C(C)C)S(=O)(=O)c1ccc(N)cc1 [Example F16, N-{(1S,5S)-5-[[(4-aminophenyl)sulfonyl](isopropyl)amino]-6-hydroxy-1-methylhexyl}-2,3-dichloro-Nα-(methoxycarbonyl)-L-phenylalaninamide]		0.058	0.128
CCCN([C@H](CO)CCC[C@H](C)NC(=O)[C@@H](NC(=O)OC)C(c1cccc(F)c1)c1cccc(F)c1)S(=O)(=O)c1ccc(N)cc1 [Example F17, N-{(1S,5S)-5-[[(4-aminophenyl)sulfonyl](propyl)amino]-6-hydroxy-1-methylhexyl}-3-fluoro-β-(3-fluorophenyl)-Nα-(methoxycarbonyl)-L-phenylalaninamide]	0.01	0.018	
CCN([C@H](CO)CCC[C@H](C)NC(=O)[C@@H](NC(=O)OC)C(c1ccccc1)c1ccccc1)S(=O)(=O)c1ccc(CO)cc1 [Example G1, N-[(1S,5S)-5-(ethyl{[4-(hydroxymethyl)phenyl]sulfonyl}amino)-6-hydroxy-1-methylhexyl]-Nα-(methoxycarbonyl)-β-phenyl-L-phenylalaninamide]	0.05	0.037	
COC(=O)N[C@@H](Cc1ccccc1Cl)C(=O)N[C@@H](C)CCC[C@@H](CO)N(CC(C)C)S(=O)(=O)c1ccc(CO)cc1 [Example G2, 2-chloro-N-{(1S,5S)-6-hydroxy-5-[{[4-(hydroxymethyl)phenyl]sulfonyl}(isobutyl)amino]-1-methylhexyl}-Nα-(methoxycarbonyl)-L-phenylalaninamide]	0.082	0.014	
COC(=O)N[C@H](C(=O)N[C@H](CCC[C@@H](CO)N(CCC(C)C)S(=O)(=O)c1ccc2ncsc2c1)C1CC1)C(c1ccccc1)c1ccccc1 [Example G3, N-{(1R,5S)-5-[(1,3-benzothiazol-6-ylsulfonyl)(3-metbylbutyl)amino]-1-cyclopropyl-6-hydroxyhexyl}-Nα-(methoxycarbonyl)-β-phenyl-L-phenylalaninamide]	0.158	0.044	
COC(=O)N[C@H](C(=O)N[C@@H](C)CCC[C@@H](CO)N(C)S(=O)(=O)c1ccc(N)cc1)C(c1ccccc1)c1ccccc1 [Example G4, N-{(1S,5S)-5-[[(4-aminophenyl)sulfonyl](methyl)amino]-6-hydroxy-1-methylhexyl}-Nα-(metboxycarbonyl)-β-phenyl-L-phenylalaninamide]	0.405	0.041	
CCN([C@H](CO)CCC[C@H](C)NC(=O)[C@@H](NC(=O)OC)C(c1ccccc1)c1ccccc1)S(=O)(=O)c1ccc(N)cc1 [Example G5, N-{(1S,5S)-5-[[(4-aminophenyl)sulfonyl](ethyl)amino]-6-hydroxy-1-methylhexyl}-Nα-(methoxycarbonyl)-β-phenyl-L-phenylalaninamide]	0.378	0.064	
COC(=O)N[C@H](C(=O)N[C@@H](C)CCC[C@@H](CO)N(C)S(=O)(=O)c1ccc(CO)cc1)C(c1ccccc1)c1ccccc1 [Example G6, N-{(1S,5S)-6-hydroxy-5-[{[4-(hydroxymethyl)phenyl]sulfonyl}(methyl)amino]-1-methylhexyl}-Nα-(methoxycarbonyl)-β-phenyl-L-phenylalaninamide]	0.376	0.161	
COC(=O)N[C@H](C(=O)N[C@@H](C)CCC[C@@H](CO)N(CC1CC1)S(=O)(=O)c1ccc(N)cc1)C(c1ccccc1)c1ccccc1 [Example G7, N-{(1S,5S)-5-[[(4-aminophenyl)sulfonyl](cyclopropylmethyl)amino]-6-hydroxy-1-methylhexyl}-Nα-(methoxycarbonyl)-β-phenyl-L-phenylalaninamide]	0.024	0.015	
COC(=O)N[C@@H](Cc1ccccc1Cl)C(=O)N[C@@H](C)CCC[C@@H](CO)N(C)S(=O)(=O)c1ccc(CO)cc1 [Example G8, 2-chloro-N-{(1S,5S)-6-hydroxy-5-[{[4-(hydroxymethyl)phenyl]sulfonyl}(methyl)amino]-1-methylhexyl}-Nα-(methoxycarbonyl)-L-phenylalaninamide]	3.2	0.191	
CCN([C@H](CO)CCC[C@H](C)NC(=O)[C@H](Cc1ccccc1Cl)NC(=O)OC)S(=O)(=O)c1ccc(CO)cc1 [Example G9, 2-chloro-N-[(1S,5S)-5-(ethyl{[4-(hydroxymethyl)phenyl]sulfonyl}amino)-6-hydroxy-1-methylhexyl]-Nα-(methoxycarbonyl)-L-phenylalaninamide]	0.629	0.102	
COC(=O)N[C@@H](Cc1ccccc1Cl)C(=O)N[C@@H](C)CCC[C@@H](CO)N(C(C)C)S(=O)(=O)c1ccc(CO)cc1 [Example G10, 2-chloro-N-{(1S,5S)-6-hydroxy-5-[{[4-(hydroxymethyl)phenyl]sulfonyl}(isopropyl)amino]-1-methylhexyl}-Nα-(methoxycarbonyl)-L-phenylalaninamide]	0.389	0.049	
COC(=O)N[C@@H](Cc1ccccc1Cl)C(=O)N[C@@H](C)CCC[C@@H](CO)N(C(C)C)S(=O)(=O)c1ccc(N)cc1 [Example G11, N-{(1S,5S)-5-[[(4-aminophenyl)sulfonyl](isopropyl)amino]-6-hydroxy-1-methylhexyl}-2-chloro-Nα-(methoxycarbonyl)-L-phenylalaninamide]	1.3	0.093	
COC(=O)N[C@@H](Cc1ccccc1Br)C(=O)N[C@@H](C)CCC[C@@H](CO)N(CC(C)C)S(=O)(=O)c1ccc(CO)cc1 [Example G12, 2-bromo-N-{(1S,5S)-6-hydroxy-5-[{[4-(hydroxymethyl)phenyl]sulfonyl}(isobutyl)amino]-1-methylhexyl}-Nα-(methoxycarbonyl)-L-phenylalaninamide]	0.055	0.015	
COC(=O)N[C@@H](Cc1ccccc1Br)C(=O)N[C@@H](C)CCC[C@@H](CO)N(C(C)C)S(=O)(=O)c1ccc(CO)cc1 [Example G13, 2-bromo-N-{(1S,5S)-6-hydroxy-5-[{[4-(hydroxymethyl)phenyl]sulfonyl}(isopropyl)amino]-1-methylhexyl}-Nα-(methoxycarbonyl)-L-phenylalaninamide]	0.291	0.071	
COC(=O)N[C@H](C(=O)N[C@@H](C)CCC[C@@H](CO)N(CCCF)S(=O)(=O)c1ccc(CO)cc1)C(c1ccccc1)c1ccccc1 [Example G14, N-[(1S,5S)-5-((3-fluoropropyl){[4-(hydroxymethyl)phenyl]sulfonyl}amino)-6-hydroxy-1-methythexyl]-Nα-(methoxycarbonyl)-β-phenyl-L-phenylalaninamide]	0.01	0.016	
COC(=O)N[C@@H](Cc1ccccc1Br)C(=O)N[C@@H](C)CCC[C@@H](CO)N(C(C)C)S(=O)(=O)c1ccc(N)cc1 [Example G15, N-{(1S,SS)-5-[[(4-aminophenyl)sulfonyl](isopropyl)amino]-6-hydroxy-1-methylhexyl}-2-bromo-Nα-(methoxycarbonyl)-L-phenylalaninamide]	0.584	0.077	
COC(=O)N[C@H](C(=O)N[C@@H](C)CCC[C@@H](CO)N(CC(C)C)S(=O)(=O)c1ccc(CO)cc1)C(c1ccccc1)c1ccccc1 [Example G16, N-{(1S,5S)-6-hydroxy-5-[{[4-(hydroxymethyl)phenyl]sulfonyl}(isobutyl)amino]-1-methylhexyl}-Nα-(methoxycarbonyl)-β-phenyl-L-phenylalaninamide]	0.01	0.008	
COC(=O)N[C@H](C(=O)N[C@@H](C)CCC[C@@H](CO)N(C1CCC1)S(=O)(=O)c1ccc(CO)cc1)C(c1ccccc1)c1ccccc1 [Example G17, N-[(1S,5S)-5-(cyclobutyl{[4-(hydroxymethyl)phenyl]sulfonyl}amino)-6-hydroxy-1-methylhexyl]-Nα-(methoxycarbonyl)-β-phenyl-L-phenylalaninamide]	0.077	0.137	
